Assay results from ChEMBL document CHEMBL1146676, “3-Amino-2-hydroxyamides and related compounds as inhibitors of methionine aminopeptidase-2” (Bioorg Med Chem Lett, 2004).

Each compound was assayed against Methionine aminopeptidase 1 (Homo sapiens, UniProt P53582) (assay: Inhibitory activity against human methionine aminopeptidase-1).

Compound | IC50 [µM]
CC(C)CSC[C@@H](N)[C@H](O)C(=O)NOc1ccccc1 | 1.5
C[C@H](NC(=O)[C@@H](O)[C@H](N)CSCC1CCCCC1)c1cccc2ccccc12 | 45
Cc1ccc(NNC(=O)[C@@H](O)[C@H](N)CCc2ccccc2)cc1 | 16
CCOC(=O)[C@H](C)NC(=O)C(O)[C@H](N)CCc1ccccc1 (stereo partly specified) | 101
N[C@H](CC1CCCCC1)[C@H](O)C(=O)NNC(=O)c1ccc2ccccc2c1 | 63
C[C@H](NC(=O)[C@@H](O)[C@H](N)CC1CCCCC1)C(=O)O | > 100
N[C@H](CCc1ccccc1)C(O)C(=O)NOc1ccccc1 (single isomer, unassigned) | 13
CCSCC[C@@H](N)[C@H](O)C(=O)NNC(=O)c1ccc2ccccc2c1 | 15
CCSCC[C@@H](N)[C@H](O)C(=O)NOc1ccccc1 | 1.3
N[C@H](C1CCCCC1)[C@H](O)C(=O)N[C@@H](CO)c1ccccc1 | 79
N[C@H](CC1CCCCC1)[C@H](O)C(=O)N[C@@H](CO)c1ccccc1 | 68
CC(C)SCC[C@@H](N)[C@H](O)C(=O)NNC(=O)c1cccc(Cl)c1 | 56
CCOC(=O)[C@H](C)NC(=O)[C@@H](O)[C@H](N)CC1CCCCC1 | 84
CCSCC[C@@H](N)[C@H](O)C(=O)NNc1ccc(C)cc1 | 1.3
CCOC(=O)[C@H](C)NC(=O)C(O)[C@H](N)CCC1CCCCC1 (stereo partly specified) | 137
N[C@H](CC1CCCCC1)[C@H](O)C(=O)NNC(=O)c1cccc(Cl)c1 | > 100
CC(C)SCC[C@@H](N)[C@H](O)C(=O)N(C)Cc1cccc2ccccc12 | 81
N[C@H](C1CCCCC1)C(O)C(=O)NOc1ccccc1 (stereo partly specified) | 95
CC(C)SCC[C@@H](N)[C@H](O)C(=O)NNC(=O)c1ccc2ccccc2c1 | 18
CCOC(=O)[C@H](C)NC(=O)C(O)[C@H](N)CSC(C)(C)C (stereo partly specified) | 14
COc1cccc(NC(=O)[C@@H](O)[C@H](N)CC2CCCCC2)c1 | 90
CCSCC[C@@H](N)[C@H](O)C(=O)N(C)Cc1cccc2ccccc12 | 12
CCCSC[C@@H](N)[C@H](O)C(=O)N[C@@H](CO)c1ccccc1 | 12
CCCSC[C@@H](N)[C@H](O)C(=O)NCCc1ccc(Cl)cc1Cl | 24
N[C@H](CC1CCCCC1)[C@H](O)C(=O)NCc1ccc2ccccc2c1 | 12
Cc1ccc(NNC(=O)[C@@H](O)[C@H](N)CCSC(C)C)cc1 | 11
CCCC[C@@H](N)C(O)C(=O)N[C@@H](C)C(=O)OCC (stereo partly specified) | 100
CN(Cc1cccc2ccccc12)C(=O)[C@@H](O)[C@H](N)CC1CCCCC1 | 78
CCOC(=O)[C@H](C)NC(=O)C(O)[C@H](N)CSCC1CCCCC1 (stereo partly specified) | > 100
CC(C)SCC[C@@H](N)[C@H](O)C(=O)N[C@@H](CO)c1ccccc1 | 32

Second part, the compound after the results:

IC50 [µM] | Compound
8.7 | CCSCC[C@@H](N)[C@H](O)C(=O)NNC(=O)c1cccc(Cl)c1
11 | CCCSC[C@@H](N)[C@H](O)C(=O)NNC(=O)c1cccc(Cl)c1
89 | N[C@H](C1CCCCC1)[C@H](O)C(=O)NNc1cccc2ccccc12
53 | CC(C)CSC[C@@H](N)[C@H](O)C(=O)NCCc1ccc(Cl)cc1Cl
93 | N[C@H](CCc1ccccc1)[C@H](O)C(=O)NNc1cccc2ccccc12
4.7 | CC(C)SCC[C@@H](N)C(O)C(=O)NOc1ccccc1 (single isomer, unassigned)
69 | CC(C)SCC[C@@H](N)C(O)C(=O)NCCc1ccc(Cl)cc1Cl (single isomer, unassigned)
11 | CC(C)CSC[C@@H](N)[C@H](O)C(=O)N[C@@H](CO)c1ccccc1
84 | CCOC(=O)[C@H](C)NC(=O)C(O)[C@H](N)CC1CCCCC1 (stereo partly specified)
58 | N[C@H](CC1CCCCC1)[C@H](O)C(=O)NNc1cccc2ccccc12
75 | N[C@H](CCc1ccccc1)[C@H](O)C(=O)N[C@@H](CO)c1ccccc1
> 100 | N[C@H](CSCC1CCCCC1)[C@H](O)C(=O)NCCc1ccc(Cl)cc1Cl
> 100 | N[C@H](CC1CCCCC1)[C@H](O)C(=O)NNC(=O)c1cc(Cl)ccc1Cl
12 | C[C@H](NC(=O)C(O)[C@H](N)CCc1ccccc1)c1cccc2ccccc12 (single isomer, unassigned)
46 | N[C@H](C1CCCCC1)[C@H](O)C(=O)NNC(=O)c1cccc(Cl)c1
34 | CC(C)CSC[C@@H](N)[C@H](O)C(=O)NNc1cccc2ccccc12
57 | CCCSC[C@@H](N)C(O)C(=O)N[C@@H](C)C(=O)OCC (stereo partly specified)

IC50 [µM] | Compound
13 | CCOC(=O)[C@H](C)NC(=O)C(O)[C@H](N)CSC(C)C (stereo partly specified)
6.8 | Cc1ccc(NNC(=O)[C@@H](O)[C@H](N)CSCC(C)C)cc1
> 100 | CCOC(=O)C(C)(C)NC(=O)[C@@H](O)[C@H](N)CC1CCCCC1
8.9 | CCSCC[C@@H](N)[C@H](O)C(=O)NNc1cccc2ccccc12
20 | N[C@H](CC1CCCCC1)[C@H](O)C(=O)NOc1ccccc1
63 | N[C@H](CC1CCCCC1)[C@H](O)C(=O)NCCc1ccc(Cl)cc1Cl
66 | CCOC(=O)[C@H](C)NC(=O)C(O)[C@H](N)CSCC(C)C (stereo partly specified)
> 100 | N[C@H](C1CCCCCCC1)C(O)C(=O)NOc1ccccc1 (single isomer, unassigned)
5.3 | CC(NC(=O)[C@@H](O)[C@H](N)CC1CCCCC1)c1ccc2ccccc2c1 (stereo partly specified)
> 100 | CCOC(=O)[C@@H](C)NC(=O)[C@@H](O)[C@H](N)CC1CCCCC1
69 | CCOC(=O)[C@H](C)NC(=O)C(O)[C@H](N)CCSCC (stereo partly specified)
5 | CCCSC[C@@H](N)[C@H](O)C(=O)NNc1ccc(C)cc1
14 | Cc1ccc(NNC(=O)[C@@H](O)[C@H](N)CC2CCCCC2)cc1
63 | CCOC(=O)[C@H](C)NC(=O)C(O)[C@H](N)CCSC (stereo partly specified)
> 100 | CN(Cc1cccc2ccccc12)C(=O)[C@@H](O)[C@H](N)CCc1ccccc1
19 | CC(C)CSC[C@@H](N)[C@H](O)C(=O)N(C)Cc1cccc2ccccc12
1.7 | CCCSC[C@@H](N)[C@H](O)C(=O)NOc1ccccc1

These compounds were tested against Methionine aminopeptidase 2 (Homo sapiens, UniProt P50579) (assay: Inhibitory activity against human methionine aminopeptidase-2).
Sequence of Methionine aminopeptidase 2 (P50579 whole entry): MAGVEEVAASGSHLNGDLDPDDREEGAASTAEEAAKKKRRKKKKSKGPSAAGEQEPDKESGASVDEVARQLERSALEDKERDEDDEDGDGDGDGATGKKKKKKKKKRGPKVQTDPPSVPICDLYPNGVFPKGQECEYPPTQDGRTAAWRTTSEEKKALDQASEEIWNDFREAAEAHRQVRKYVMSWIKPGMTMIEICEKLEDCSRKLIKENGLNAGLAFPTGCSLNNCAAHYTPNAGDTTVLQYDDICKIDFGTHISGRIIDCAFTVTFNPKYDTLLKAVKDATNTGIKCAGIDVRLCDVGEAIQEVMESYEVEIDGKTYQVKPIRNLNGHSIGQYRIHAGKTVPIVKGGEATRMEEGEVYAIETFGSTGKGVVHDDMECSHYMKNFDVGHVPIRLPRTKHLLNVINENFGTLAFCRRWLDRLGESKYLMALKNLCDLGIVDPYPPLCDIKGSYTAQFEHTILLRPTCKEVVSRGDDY

IC50 [µM] | Compound
> 100 | CC(C)[C@H](C)NC(=O)[C@@H](O)[C@H](N)CC1CCCCC1

Species: Homo sapiens
Experiment: Inhibitory activity against proliferation of human microvascular endothelial cell

Compound | IC50 [µM]
CC(C)SCC[C@@H](N)[C@H](O)C(=O)NNC(=O)c1cccc(Cl)c1 | 0.1
